Measurements from patent publication US20060094698A1, “Self-administered contraceptive injection of oily solution” (priority 2002, published 2006).

Experiments:
[1] = Pharmacokinetics of etonogestrel esters after one i.m. injection in the rabbit (plasma etonogestrel by LC-MSMS); assay type: in vivo; settings: for peak levels of etonogestrel: one i.m. injection 20 mg/kg in arachis oil (40 mg/ml), rabbit plasma
Protocol: For the determination of the pharmacokinetic profile of the different etonogestrel-esters after parenteral application, i.m. application in the castrated rabbit model was chosen instead of s.c. Briefly, rabbits were injected once (day 1) with indicated etonogestrel-esters at 20 mg/kg in arachis oil (with a concentration of 40 mg/ml). At day 1, 2, 3, 4, 5, 6, 7, 8, 10, 12, 14, 21, 28, 35, 49, 63, 77, 92, 106, 120 and 133 blood was collected from the ear arteria, in EDTA-containing tubes. EDTA plasma was prepared (1500 g, 15 min) and stored at −20° C. With LC-MSMS, the amount of parent compound (etonogestrel) was determined in these samples. The lower limit of this new assay is 0.5 nmol/l, from 0-250 nmol/l a linear curve was obtained with a correlation coefficient of 0.9998.

[2] = Pharmacokinetics of androgen esters after one s.c. injection in the castrated rabbit (plasma MENT or testosterone by LC-MSMS); assay type: in vivo; settings: one s.c. injection 20 mg/kg in arachis oil (100 mg/ml)
Protocol: For the determination of the pharmacokinetic profile of the different androgen-esters after s.c. application, the castrated rabbit model was selected as the model which is most similar to humans. Briefly, rabbits were injected once (day 1) with indicated androgen-esters at 20 mg/kg in arachis oil (with a concentration of 100 mg/ml). At day 2, 3, 4, 5, 8, 15, 22, 36, 44 and 58 blood was collected from the ear arteria, in EDTA-containing tubes. EDTA plasma was prepared (1500 g, 15 min) and stored at −20° C. With LC-MSMS, the amount of parent compound (testosterone or MENT) was determined in these samples. The lower limit of this new assay is 2 nmol/l, from 0-500 nmol/I a linear curve was obtained with a correlation coefficient of 0.9998.

[3] = Viscosity, Brookfield model DV-III; assay type: physicochemical
Protocol: (§1) Using these solvents, the following solutions were prepared: • 100 mg/ml etonogestrel undecanoate in the different solvents • 50 mg/ml etonogestrel undecanoate in the different solvents • 200 mg/ml MENT undecanoate in the different solvents • 100 mg/ml MENT undecanoate in the different solvents • 50 mg/ml etonogestrel undecanoate+100 mg/ml MENT undecanoate in the different solvents
(§2) The solubility of the compounds in the solvents was determined visually. The viscosity was determined using a Brookfield model DV-III. The density of the solutions was determined using a Mettler Toledo DA-100M density meter.

[4] = Density, Mettler Toledo DA-100M density meter; assay type: physicochemical
Protocol: as §1, §2

[5] = Solubility / appearance of solutions determined visually; settings: for solubility (visual) in all four tested solvents: desired concentration 50 mg/ml etonogestrel-undecanoate, 100 mg/ml MENT-undecanoate
Protocol: as §1, §2

[6] = one IM injection, hypogonadal men, FIG. 5 (Nieschlag and Behre 1997); cited from earlier work
[7] = one i.m. injection 20 mg/kg in arachis oil, rabbit
[8] = solvent arachis oil + 50% benzyl benzoate, etonogestrel undecanoate 50 mg/ml and/or MENT undecanoate 100 mg/ml
[9] = solvent arachis oil, etonogestrel undecanoate 50 mg/ml and/or MENT undecanoate 100 mg/ml
[10] = solvent ethyl undecanoate + 50% benzyl benzoate, etonogestrel undecanoate 50 mg/ml and/or MENT undecanoate 100 mg/ml
[11] = solvent ethyl undecanoate, etonogestrel undecanoate 50 mg/ml and/or MENT undecanoate 100 mg/ml

## C#C[C@]1(OC(=O)CCCCCCCC)CC[C@H]2[C@@H]3CCC4=CC(=O)CC[C@@H]4[C@H]3C(=C)C[C@@]21CC [Etonogestrel-nonanoate]
[1]
  peak levels of etonogestrel: lower peak levels
[1]; [7]
  duration of action (etonogestrel levels above 1 nmol/l): extended duration

## C#C[C@]1(OC(=O)CCCCCC)CC[C@H]2[C@@H]3CCC4=CC(=O)CC[C@@H]4[C@H]3C(=C)C[C@@]21CC [Etonogestrel-heptanoate]
[1]
  peak levels of etonogestrel: 120 nmol/L

## CCCCCCC(=O)O[C@H]1CC[C@H]2[C@@H]3CCC4=CC(=O)CC[C@]4(C)[C@H]3CC[C@]12C [Testosterone enanthate, testosterone enanthate]
[2]
  pharmacokinetic profile of released MENT or testosterone: high peak of testosterone

## CCCCCCCCCCC(=O)O[C@H]1CC[C@H]2[C@H]3[C@H](CC[C@]12C)[C@H]1CCC(=O)C=C1C[C@H]3C [MENT-undecanoate]
[3]; [8]
  Viscosity: 35.0 cps
[3]; [9]
  Viscosity: 97.2 cps
[3]; [10]
  Viscosity: 6.1 cps
[3]; [11]
  Viscosity: 4.0 cps
[4]; [8]
  Density: 1.009 g/mL
[4]; [9]
  Density: 0.924 g/mL
[4]; [10]
  Density: 0.979 g/mL
[4]; [11]
  Density: 0.879 g/mL
[5]; 200 mg/ml in arachis oil
  heating temperature necessary to dissolve: approximately 50 °C
[5]
  solubility (visual) in all four tested solvents: could be dissolved at two times the desired concentration
[5]; [8]
  Appearance: Clear yellowish solution
[5]; [9]
  Appearance: Clear yellowish solution
[5]; [10]
  Appearance: Clear colourless solution
[5]; [11]
  Appearance: Clear colourless solution

## C#C[C@]1(O)CC[C@H]2[C@@H]3CCC4=CC(=O)CC[C@@H]4[C@H]3C(=C)C[C@@]21CC [etonogestrel, (17α)-13-ethyl-17-hydroxy-11-methylene-18,19-dinorpregn-4-en-20-yn-3-one, reference compound]
[1]
  peak levels of etonogestrel: 200 nmol/L
[1]; [7]
  time in which etonogestrel levels declined to below 1 nmol/l: 28 days

## CCCCCCCCCCC(=O)O[C@H]1CC[C@H]2[C@@H]3CCC4=CC(=O)CC[C@]4(C)[C@H]3CC[C@]12C [testosterone undecanoate]
[6]
  pharmacokinetics of serum testosterone in humans: low initial release and steady-state levels of long duration

## C#C[C@]1(OC(=O)CCCCCCCCCCCC)CC[C@H]2[C@@H]3CCC4=CC(=O)CC[C@@H]4[C@H]3C(=C)C[C@@]21CC [etonogestrel tridecanoate]
[1]
  peak levels of etonogestrel: no initial levels of etonogestrel were observed

## C#CC1(OC(=O)CCCCCCCCC)CCC2C3CCC4=CC(=O)CCC4C3C(=C)CC21CC (centres unmarked) [etonogestrel decanoate]
[1]
  peak levels of etonogestrel: 24 nmol/L
[1]; [7]
  time of initial peak level of etonogestrel: 5 days

## CCCCCCCCCCC(=O)OCC [Ethyl undecanoate]
[3]; solvent alone
  Viscosity: 2.6
[4]; solvent alone
  Density: 0.861
[5]; solvent alone
  Appearance: Clear colourless solution

## C#C[C@]1(OC(=O)CCCCCCCCCCC)CC[C@H]2[C@@H]3CCC4=CC(=O)CC[C@@H]4[C@H]3C(=C)C[C@@]21CC [etonogestrel dodecanoate]
[1]
  peak levels of etonogestrel: 9 nmol/L
[1]; [7]
  time of initial peak level of etonogestrel: 8 days

## C#C[C@]1(OC(=O)CCCCCCCCCC)CC[C@H]2[C@@H]3CCC4=CC(=O)CC[C@@H]4[C@H]3C(=C)C[C@@]21CC [etonogestrel undecanoate]
[3]; [8]
  Viscosity: 28.1 cps
[3]; [9]
  Viscosity: 76.6 cps
[3]; [10]
  Viscosity: 4.7 cps
[3]; [11]
  Viscosity: 3.2 cps
[1]
  peak levels of etonogestrel: 13 nmol/L
[1]; [7]
  duration of action (etonogestrel levels above 1 nmol/l): more than 92 days
[4]; [8]
  Density: 1.006 g/mL
[4]; [9]
  Density: 0.919 g/mL
[4]; [10]
  Density: 0.978 g/mL
[4]; [11]
  Density: 0.870 g/mL
[5]
  solubility (visual) in all four tested solvents: could be dissolved at two times the desired concentration
[5]; [8]
  Appearance: Clear yellowish solution
[5]; [9]
  Appearance: Clear yellowish solution
[5]; [10]
  Appearance: Clear colourless solution
[5]; [11]
  Appearance: Clear colourless solution
